# Square brackets hold non-standard residues; d marks the D form. Peptide text beside a SMILES is read from it. * marks the point of attachment. N(4-Sulfamoylphenethyl)Gly = NS(=O)(=O)c1ccc(CCNCC(=O)O)cc1; Gly(N-piperonyl) = O=C(O)CNCc1ccc2c(c1)OCO2; hSer(lactone) = O=C1OCC[C@@H]1N*; NFurfurylGly = O=C(O)CNCc1ccco1; NAllylGly = C=CCNCC(=O)O
# Molecular target: M2 monoclonal anti-flag antibody
# Test: Microarray binding of spotted hits titrated with anti-FLAG antibody
# Design: species or system mouse
# Conditions: apparent KD from microarray binding curves with decreasing anti-FLAG antibody concentrations; NA = spot not bound by anti-FLAG antibody
# Method: (§1) A total of 16 copies of each array of 100 compounds (the hits and various controls) were spotted onto each microscope slide. Each array, isolated by applying a Whatman Fast Frame to the slide, was then incubated for 2 hr with either anti-Myc antibody or various concentrations of anti-FLAG antibody. After washing, the amount of antibody captured at each spot was quantified by subsequent hybridization with fluorescently labeled secondary antibody, another wash, drying, and scanning. […] No binding of the anti-FLAG antibody to the Myc peptide was observed, nor was binding of the anti-Myc antibody to any of the hits or the FLAG peptide.
# Microarray Spotting, Hybridization, and Data Analysis. Contents of the 384-well plates were printed onto maleimide-coated glass slides with a NanoPrint LM 360 (TeleChem International Inc., Sunnyvale, Calif.) with MP946 Micro Spotting Pins. A 10% ethanol (EM-AX007309; Midwest Grain Products) and water mixture was used to wash the pins before printing and after spotting of each compound. Multiple wash/sonicate/dry cycles were used between each sample pick-up and print cycle. Spots were printed on the slide to fit within the wells of a 16-well Whatman Fast Frame (Whatman no. 10486003), which allows 16 isolated hybridization events on a single slide. Slides were left in 50% humidity for 12 hr […]. After printing, the humidifier was turned off and the slides were left for at least 12 hr before free maleimide groups were blocked with 2% β-mercaptoethanol in DMF for 1 hr by placing the slides in glass slide holders inside of glass containers on a shaker in the chemical hood. Slides were washed sequentially with DMF for 30 min, tetrahydrofuran for 30 min, DMF for 30 min, acetonitrile thrice for 20 min, isopropanol thrice for 20 min, 13 TBST once for 20 min, then 0.13 TBST once for 20 min. Washed slides were spun dry for 5 min at 2000 rpm.
# Dry slides were placed inside the Whatman Fast Frame following the provided instructions, and each of the 16 wells per slide was blocked with 100 μl of StartingBlock (Fisher) for 1 hr at RT with a multichannel pipetteman. Wells were drained and washed once with […] TBST. TBST was drained one well at a time before adding 100 μl of appropriate concentrations of protein(s) diluted in 1:1 TBST:StartingBlock. The FastFrame was placed on wet paper towels inside of a glass cake pan, which was sealed with Glad Press'n Seal and placed on an orbital shaker for 2-4 hr at RT. Each well was washed with TBST six times before adding 4 μg/ml Alexa647 goat anti-mouse IgG secondary antibodies diluted in 1:1 TBST:StartingBlock for 1 hr at RT. Slides were washed five times for 3 min with 13 TBST, then once with 0.13 TBST, spun dry at 2000 rpm, then scanned using a GenePix Autoloader 4200AL Scanner (Molecular Devices, Sunnyvale Calif.). Slides were scanned with a power of 1003 and photomultiplier tube setting of 5003-6003. Gal files were created and used to determine fluorescence intensity of each of the spots with GenePixPro6.0. Gal files were aligned manually, then automatic spotfinding followed by manual correction of spots performed for each of the scanned slides. GPR files were created and median fluorescence-background fluorescence values for each of the spots were cut and pasted in Excel and arranged (using simple macros) to simplify transferring results to GraphPad Prism 5.0 software for binding curve analyses.
row,Molecule,Kd
1,N=C(N)NCCC[C@@H](NC(=O)[C@@H](Cc1ccc(O)cc1)NC(=O)[C@@H](CCCCN)NC(=O)[C@H](N)CCC(=O)O)C(=O)N[C@H](Cc1ccc(O)cc1)C(=O)N[C@H](Cc1c[nH]c2ccccc12)C(=O)N(CC(=O)N[C@H]1CCOC1=O)Cc1ccco1 [Spot B4] (H-[dE][dK][dY][dR][dY][dW][NFurfurylGly]-{hSer(lactone)}; C-terminus assumed),7 nM
2,NCCCC[C@@H](NC(=O)[C@H](N)CC(=O)O)C(=O)N[C@H](Cc1ccc(O)cc1)C(=O)N[C@H](Cc1ccccc1)C(=O)N[C@H](CO)C(=O)N(CCc1ccc(S(N)(=O)=O)cc1)CC(=O)N(CC(=O)N[C@H]1CCOC1=O)Cc1ccco1 [Spot B8] (H-[dD][dK][dY][dF][dS][N(4-Sulfamoylphenethyl)Gly][NFurfurylGly]-{hSer(lactone)}),9 nM
3,NCCCC[C@@H](N)C(=O)N[C@H](Cc1ccc(O)cc1)C(=O)N[C@H](Cc1ccc(O)cc1)C(=O)N[C@H](CC(N)=O)C(=O)N[C@H](CC(=O)O)C(=O)N(CC(=O)N(CC(=O)N[C@H]1CCOC1=O)Cc1ccco1)Cc1ccc2c(c1)OCO2 [Spot D5] (H-[dK][dY][dY][dN][dD][Gly(N-piperonyl)][NFurfurylGly]-{hSer(lactone)}),7 nM
4,C=CCN(CC(=O)N(CC(=O)N[C@H]1CCOC1=O)Cc1ccco1)C(=O)[C@@H](CC(=O)O)NC(=O)CNC(=O)CN(Cc1ccc2c(c1)OCO2)C(=O)[C@@H](Cc1ccc(O)cc1)NC(=O)[C@H](N)CCCCN [Spot E4] (H-[dK][dY][Gly(N-piperonyl)]G[dD][NAllylGly][NFurfurylGly]-{hSer(lactone)}),8 nM
5,C[C@@H](NC(=O)[C@@H](Cc1ccc(O)cc1)NC(=O)[C@@H](CCCCN)NC(=O)[C@@H](Cc1ccccc1)NC(=O)[C@H](N)CC(=O)O)C(=O)N[C@H](CCC(=O)O)C(=O)N(CC(=O)N[C@H]1CCOC1=O)Cc1ccco1 [Spot E8] (H-[dD][dF][dK][dY][dA][dE][NFurfurylGly]-{hSer(lactone)}; C-terminus assumed),9 nM
6,NCCCC[C@@H](N)C(=O)N[C@H](Cc1ccc(O)cc1)C(=O)N[C@H](CC(=O)O)C(=O)N[C@H](Cc1c[nH]c2ccccc12)C(=O)N[C@H](CCC(=O)O)C(=O)NCC(=O)N(CC(=O)N[C@H]1CCOC1=O)Cc1ccco1 [Spot H6] (H-[dK][dY][dD][dW][dE]G[NFurfurylGly]-{hSer(lactone)}; C-terminus assumed),11 nM
7,NCCCC[C@@H](N)C(=O)N[C@H](Cc1ccc(O)cc1)C(=O)N[C@H](Cc1ccc(O)cc1)C(=O)N[C@H](CCC(=O)O)C(=O)N[C@H](CC(N)=O)C(=O)N(CC(=O)N(CC(=O)N[C@H]1CCOC1=O)Cc1ccco1)Cc1ccc2c(c1)OCO2 [Spot H7] (H-[dK][dY][dY][dE][dN][Gly(N-piperonyl)][NFurfurylGly]-{hSer(lactone)}),9 nM
8,C=CCN(CC(=O)N[C@H](CCC(=O)O)C(=O)N[C@H](CC(C)C)C(=O)N(CC(=O)N[C@H]1CCOC1=O)Cc1ccco1)C(=O)[C@@H](CC(=O)O)NC(=O)[C@@H](Cc1ccc(O)cc1)NC(=O)[C@H](N)CCCCN [Spot H9] (H-[dK][dY][dD][NAllylGly][dE][dL][NFurfurylGly]-{hSer(lactone)}; C-terminus assumed),4 nM

# Now from value to molecule:
row,Kd,Molecule
1,5 nM,C[C@@H](NC(=O)[C@@H](Cc1ccc(O)cc1)NC(=O)[C@@H](CCCCN)NC(=O)[C@H](N)CC(N)=O)C(=O)N[C@H](CC(=O)O)C(=O)N[C@H](CC(=O)O)C(=O)N(CC(=O)N[C@H]1CCOC1=O)Cc1ccco1 [Spot A7] (H-[dN][dK][dY][dA][dD][dD][NFurfurylGly]-{hSer(lactone)}; C-terminus assumed)
2,3 nM,C=CCNCC(=O)N[C@@H](C(=O)N[C@H](CCCCN)C(=O)N[C@H](Cc1ccc(O)cc1)C(=O)N[C@H](CC(=O)O)C(=O)N[C@H](CC(=O)O)C(=O)N(CC(=O)N[C@H]1CCOC1=O)Cc1ccco1)[C@H](C)O [Spot B1] (H-[NAllylGly][dT][dK][dY][dD][dD][NFurfurylGly]-{hSer(lactone)})
3,6 nM,CC(C)C[C@@H](N)C(=O)N[C@H](CC(=O)O)C(=O)N[C@H](CCCCN)C(=O)N[C@H](Cc1ccc(O)cc1)C(=O)N[C@H](CCC(=O)O)C(=O)N[C@H](Cc1c[nH]c2ccccc12)C(=O)N(CC(=O)N[C@H]1CCOC1=O)Cc1ccco1 [Spot B7] (H-[dL][dD][dK][dY][dE][dW][NFurfurylGly]-{hSer(lactone)}; C-terminus assumed)
4,2 nM,NCCCC[C@@H](NC(=O)[C@@H](CO)NC(=O)[C@H](N)CCC(=O)O)C(=O)N[C@H](Cc1ccc(O)cc1)C(=O)N[C@H](CC(=O)O)C(=O)N[C@H](Cc1ccc(O)cc1)C(=O)N(CC(=O)N[C@H]1CCOC1=O)Cc1ccco1 [Spot B9] (H-[dE][dS][dK][dY][dD][dY][NFurfurylGly]-{hSer(lactone)}; C-terminus assumed)
5,6 nM,NCCCC[C@@H](N)C(=O)N[C@H](Cc1ccc(O)cc1)C(=O)N[C@H](CCC(=O)O)C(=O)N[C@H](Cc1ccc(O)cc1)C(=O)N[C@H](CCC(=O)O)C(=O)N[C@H](Cc1ccc(O)cc1)C(=O)N(CC(=O)N[C@H]1CCOC1=O)Cc1ccco1 [Spot H1] (H-[dK][dY][dE][dY][dE][dY][NFurfurylGly]-{hSer(lactone)}; C-terminus assumed)
6,5 nM,NCCCC[C@@H](N)C(=O)N[C@H](Cc1ccc(O)cc1)C(=O)N[C@H](CC(=O)O)C(=O)N(CCc1ccc(S(N)(=O)=O)cc1)CC(=O)N(CCc1ccc(S(N)(=O)=O)cc1)CC(=O)N[C@H](CC(=O)O)C(=O)N(CC(=O)N[C@H]1CCOC1=O)Cc1ccco1 [Spot H2] (H-[dK][dY][dD][N(4-Sulfamoylphenethyl)Gly][N(4-Sulfamoylphenethyl)Gly][dD][NFurfurylGly]-{hSer(lactone)})
7,2 nM,NCCCC[C@@H](NC(=O)[C@@H](CC(=O)O)NC(=O)[C@H](N)Cc1c[nH]c2ccccc12)C(=O)N[C@H](Cc1ccc(O)cc1)C(=O)N[C@H](Cc1c[nH]cn1)C(=O)N(CCc1ccc(S(N)(=O)=O)cc1)CC(=O)N(CC(=O)N[C@H]1CCOC1=O)Cc1ccco1 [Spot H8] (H-[dW][dD][dK][dY][dH][N(4-Sulfamoylphenethyl)Gly][NFurfurylGly]-{hSer(lactone)})

# Same assay, conditions: microarray, fluorescently labeled secondary antibody
row,binding of anti-FLAG antibody to spotted compound,Molecule
1,binds,N-Asp-Tyr-Lys-Asp-Asp-Asp-Asp-Lys-C [FLAG peptide]

# System: anti-Myc antibody
# Test: Microarray hybridization of spotted compounds with anti-Myc antibody
# Format: binding
# Conditions: fluorescently labeled secondary antibody
# Method: as §1
# Microarray Spotting, Hybridization, and Data Analysis. […]
# Dry slides were placed inside the Whatman Fast Frame following the provided instructions, and each of the 16 wells per slide was blocked with 100 μl of StartingBlock (Fisher) for 1 hr at RT with a multichannel pipetteman. […] Gal files were created and used to determine fluorescence intensity of each of the spots with GenePixPro6.0. […] GPR files were created and median fluorescence-background fluorescence values for each of the spots were cut and pasted in Excel and arranged (using simple macros) to simplify transferring results to GraphPad Prism 5.0 software for binding curve analyses.
row,binding of anti-Myc antibody to spotted compound,Molecule
1,No binding,N-Asp-Tyr-Lys-Asp-Asp-Asp-Asp-Lys-C [FLAG peptide]

# System: anti-FLAG antibody
# Test: Competition experiment: anti-FLAG antibody pre-incubated with excess soluble peptide before hybridization to the array
# Format: binding, mouse
# Conditions: antibody first incubated with excess peptide
# Method: To address if the higher affinity hits bind to anti-FLAG antibody in the antigen-binding site, the inventors carried out a competition experiment in which the anti-FLAG antibody was first incubated with an excess of FLAG peptide or, as a control, the Myc peptide, before hybridization to the array.
row,effect of excess soluble peptide on binding of anti-FLAG antibody to the molecules on the microarray,Molecule
1,abrogated binding,N-Asp-Tyr-Lys-Asp-Asp-Asp-Asp-Lys-C [FLAG peptide]

# Reference: US20120220482A1, “COMPOSITIONS AND METHODS FOR SCREENING PEPTOID LIBRARIES” (The Board of Regents of the University of Texas System, priority 2011, published 2012)
